From patent US20110189241A1, “Process For Controlling The Particle Size of A [3-(Trifluoromethyl)Phenyl]-1-Aminopropane Derivative” (Medichem, S.A., priority 2008, published 2011)

Experiment: Particle size distribution (Malvern Mastersizer S, laser diffraction, by volume)
Format: physicochemical
Settings: for particle size D[v, 0.5]: crystals as isolated after crystallization from isobutyl acetate and drying, mean of nine readings, hydrochloride
Experimental: The particle size for cinacalcet hydrochloride was measured using a Malvern Mastersizer S particle size analyzer with an MS1 Small Volume Sample Dispersion Unit stirred cell. A 300RF mm lens and a beam length of 2.4 mm were used. Samples for analysis were prepared by dispersing a weighed amount of cinacalcet hydrochloride (approximately 60 mg) in 20 mL of sample dispersant, previously prepared by dilution of 1.5 g of Soybean Lecithin to 200 mL with Isopar G. The suspension was delivered drop-wise to the background-corrected measuring cell filled with dispersant (Isopar G) until the obscuration reached the desired level. Nine repeated readings of the volume distributions were taken. For characterization, the values of D50 and D90 (by volume) were selected and reported as the mean of the nine values measured.

| SMILES | particle size D[v, 0.9] (crystals as isolated after crystallization (Example 9)) [µm] | particle size D[v, 0.5] [μm] | particle size D[v, 0.9] (crystals as isolated after crystallization (Example 4)) [µm] |
| --- | --- | --- | --- |
| C[C@@H](NCCCc1cccc(C(F)(F)F)c1)c1cccc2ccccc12.Cl [Example 9, cinacalcet hydrochloride] | 518 | 74.0 | – |
| C[C@@H](NCCCc1cccc(C(F)(F)F)c1)c1cccc2ccccc12.Cl [Example 6, cinacalcet hydrochloride] | – | 65.0 | – |
| C[C@@H](NCCCc1cccc(C(F)(F)F)c1)c1cccc2ccccc12.Cl [Example 4, cinacalcet hydrochloride] | – | – | 404 |
